Results reported in patent US20220334101A1, “MODULATING EXTRACELLULAR MATRIX MOVEMENT” (Helmholtz Zentrum Muenchen - Deutsches Forschungszentrum …, priority 2019, published 2022).
“Also recorded” adds a separate entry of the source. Counter-ions that a name gives are not always drawn. Like-named read-outs stand apart in the source and are kept apart here.

How the values were obtained:
fascia matrix = assay: Fascia in vitro culture, live imaging of matrix movements (SHG); assay type: cell-based, mouse; conditions: C57BL6/J neonate fascia biopsy, 100 μM Etoposide
Method: Two in vitro systems were used. To visualize the changes in matrix architecture in real time, 2 mm-diameter biopsies were excised from P0 C57BL/6J neonates and processed for live imaging (SCAD assay, Patent Application No. PLA17A13). To determine the effectiveness of the DT treatment, muscle+fascia was manually separated from the rest of the skin in the chimeric grafts experiments and incubated with DT at different concentrations for 1 h at ambient temperature. […]
Histological sections were imaged using a using a ZEISS AxioImager.Z2m (Carl Zeiss). […] Second harmonic generation signal and green auto-fluorescence as a reference were recorded every hour. […]
Histological images were analyzed using ImageJ. For quantification of labeled cells in the fate mapping experiments, the Inventors manually defined the wound, surrounding dermis, and adjacent fascia areas. […] The number of labeled cells in each area was determined by quantifying the particles that were double-positive for DAPI and for the desired label (eg. Dil, GFP, etc) channels. The coverage of the labeled matrix in the wound area was determined by quantifying the area that was double-positive for the labeled matrix and the COLLAGEN I+III+VI staining signal. […] Scar length was quantified from randomly selected sections taken from the middle of the scar using as a reference the two flanking hair follicles. […]

[1] = tested on: fascia matrix mobilization into wounds; assay: Fascia labelling study: fascia mobilization into excisional back-skin wounds in live mice; assay type: in vivo, mouse; conditions: 75 μl of 250 μM three times a week, wounds collected Day 7
Method: For the fascia labelling study, 2 mg/ml NHS-fluorescein dye was subcutaneously injected into dorsal skin of wildtype mice at 4 days and 2 days prior to the surgery. After labelling, excisional wounds were made in mouse back-skin and treated with 75 μl saline diluted chemical solutions with a final concentration of 250 μM three times a week from the surgery day onwards. Scar samples were collected on D7.
Having discovered sprouting and reticulations are altered by the compounds, the Inventors went on to check how these effect fascia mobilization in physiologic wounds in live animals. First, the Inventors labelled the subcutaneous fascia layer with a FITC-NHS ester dye in animals, then made full thickness excisional wounds on the backs of fascia-labelled mice, and followed wound healing under the presence of a […] injection regimen using the above 3 separate compounds. Skin wounds were collected at Day 7 after wounding to determine the extent of fascia mobilization and also at 21 days post-injury to determine final wound size and scar severity. In DMSO control groups, the fascia matrix jelly was mobilized into the wound from all sides of the wound, and wounds at 7 days were completely clogged with large patches of labelled matrix jelly.

skin-fascia explants = assay: Scar-in-a-dish (SCAD) ex vivo skin-fascia explant assay, screening of Prestwick chemical library; assay type: cell-based, mouse; conditions: molecules of table 1 named as inhibitors of ECM movement
Source text: Post born Day 0 (P0) neonates of C57BL/6J wild type mouse were first sacrificed by decapitation. Then dorsal back skin was isolated to make 2 mm full thickness biopsies (0 2 mm, Stiefel) that included the epidermis, dermis and deep subcutaneous fascia layers. The whole skin tissue explant system is termed as scar-in-a-dish (SCAD) assay (Patent Application no. PLA17A13). The SCAD tissue was maintained in DMEM/F12 cell culture medium (Life Technologies) supplemented with 10% FBS (Life Technologies), 1% non-essential amino acid (Thermo Fisher), 1% Glutamax (Thermo Fisher), 1% penicillin and streptomycin (Thermo Fisher) in a 37° C. incubator supplied with […] and 5% CO2. Medium was changed every other day until day 5 when SCADs were collected and fixed for histology analysis. To be noticed, the excised skin was submerged […] in culture media, which confined the scar-prone fibroblasts to the explant and discouraged their adherence to the tissue culture plate.
The PCL provides an additional advantage as all chemicals are of stable physicochemical properties, show a high range of chemical diversity, and are with known bioavailability and safety data in humans. All these information helps to reduce the probability of screening low-quality hits and save the costs of preliminary screening process.
In order to accommodate to medium scale screening approach, the Inventors adapted the SCAD explant system into 96-well plate (Falcon) formats, with each well contained one biopsy. […] Plate and liquid handling were performed using a high-throughput screening platform system composed of a Sciclone G3 Liquid Handler from PerkinElmer (Waltham, Mass., USA). On Day 0 tissues were treated either with the respective compound (1 mM stock solution) dissolved in 100% dimethyl sulfoxide (DMSO, Carl Roth) or DMSO alone. 0.5 μl of compounds/DMSO were transferred with a 96-array head to 200 μl DMEM/F12 medium per well to keep the final DMSO concentrations at […]. Tissues were then incubated (37° C.; 5% CO2) for 72 h prior to a second round of compound treatment, which was performed by exchanging cell culture medium per well and transferring […] of compounds/DMSO into the fresh medium. After an incubation time of another 48 h (37° C.; 5% CO2) the tissues were harvested and fixed for histological processing and imaging.
Briefly, the Inventors excised 2-mm full thickness skin biopsies that included epidermis, dermis, and deep subcutaneous fascia layers from mouse backs (see Methods). Skin-fascia explants were submerged fascia-side up in culture media, to confine scar-prone fibroblasts to the explant and discourage their adherence to the tissue culture plate.
The Prestwick library has selected a diverse array of chemicals with strong physicochemical properties, with known bioavailability and clinical safety data. The library is an ideal place to start screening as it covers all major therapeutic chemical classes such as central nervous system, cardiovascular system, metabolism, and infectious diseases.

fascia fibroblasts [2] = assay: 3D staining of fascia tissue for αSMA, Ki67 and caspase 3; assay type: cell-based, mouse; conditions: fascia tissue in Matrigel
Method: (§1) In order to characterize the properties of fascia samples cultured in Matrigel, the Inventors fixed the whole gel (with fascia tissue embedded inside) and conducted 3D staining. Samples were immersed overnight in PBSGT (lx PBS implemented with 0.2% gelatin (Sigma), 0.5% Triton X-100 (Sigma) and 0.01% thimerosal (Sigma)) at room temperature and incubated with primary antibodies diluted in PBSGT for three days at room temperature. The tissues were then washed three times with PBSGT for at least 30 min each time and incubated with secondary antibodies diluted in PBSGT for one day. Finally, tissues were rinsed three times with PBSGT and stored in PBS at 4° C. until imaging. 3D whole mount imaging was conducted with a Leica SP8 multi-photon microscope.
(§2) Primary and secondary antibodies applied in 3D staining: αSMA (ab21027, Abcam), Ki 67 (ab16667, Abcam), Cleaved Caspase-3 (9661S, Cell signalling), Gli1 (ab49314, Abcam), Donkey anti rabbit AF647 (A-31573, Life Technologies), Donkey anti goat AF647 (A-21447, Life Technologies).
To better understand the molecular basis of reticulations that leads to scarring, the Inventors took a closer look at the molecular targets of the ‘hit’ chemicals. […] Thiostrepton reduces the binding activity of the transcriptional factor FoxM1; a positive regulator of Gli1 signaling (REF). Whereas Itraconazole inhibits Gli nuclear activity through stopping SMO moving to the membrane of primary cilia and thus inhibiting the pathway (James et al., 2010). […] The 3rd anti-scar drug Fluvastatin inhibits 3-Hydroxy-3-methylglutaryl-coenzyme A (HMG-CoA) reductase, a rate-limiting enzyme in cholesterol biogenesis that is required for hedgehog pathway activation (Huang P et al., 2016; Giovanni Luchetti et al., 2016). […] Thus, the Inventors conclude that anti-fibrosis chemicals converge on SHH pathway signaling to modulate fibroblast sprouting and reticulations, needed to mobilize fascia jelly into sites of injury.
The hedgehog pathway was also reported to induce proliferation and to depress apoptosis.

[3] = tested on: scars of splinted back-skin wounds; assay: In vivo splinted wound model (scar formation); parameters: species or system mouse; conditions: 75 μl per wound of 250 μM intra-dermally, day 21, trichrome staining
Gli1 = assay: 3D staining of fascia tissue for Gli1 (hedgehog pathway); assay type: cell-based, mouse; conditions: fascia tissue in Matrigel
Method: as §1, §2
To better understand the molecular basis of reticulations that leads to scarring, the Inventors took a closer look at the molecular targets of the ‘hit’ chemicals. […] Thiostrepton reduces the binding activity of the transcriptional factor FoxM1; a positive regulator of Gli1 signaling (REF). […]

fascia fibroblasts [4] = assay: Fascia invasion assay (ex vivo fascia 3D Matrigel culture); assay type: cell-based, mouse
Method: In order to observe the dynamic changes of fascia fibroblasts, the inventors isolated dorsal skin from P4 to P6 neonates of En1^Cre; R26^mTmG mouse lines. Cre positive neonates from this double transgenic mouse line were detected by green fluorescent signal in dorsal skin with a Leica M205 FA stereo microscope. Matrigel was prepared by diluting the stock aliquots with DMEM/F12 medium to a concentration of 6 mg/ml. Then 150 μl prepared gel was added in the center of a 35 mm cell culture dish (Ibidi). 4 mm biopsies were made from the dorsal skin and fascia tissues were then isolated from the dorsal skin tissues. Isolated fascia tissues were then embedded into the gel and were allowed to be solidified for one hour at 37° C. Then the tissue-gel system was maintained in DMEM/F12 medium (Life Technologies) supplemented with 10% FBS (Life Technologies), 1% non-essential amino acid (Thermo Fisher), 1% Glutamax (Thermo Fisher), 1% penicillin and streptomycin (Thermo Fisher) in a 37° C. incubator supplied with 95% O2 and 5% CO2. Medium was changed every other day until day 4 when tissues were collected and fixed. For fixation with Matrigel system, tissues were fixed in 2% paraformaldehyde (VWR) with 0.1% glutaraldehyde (Sigma) for 1 hour and then washed three times with phosphate buffered saline (PBS, Life Technologies) and stored in PBS at 4° C.
Fascia tissues were recorded everyday by a brightfield microscope to check the invasion and contraction state of the tissues. The invasion index was calculated with the following formula: Invasion index=(SD4−SD0)/SD0
SD4 and SD0 represent tissue size (including the migrated area) on Day 4 and Day 0, respectively. The contraction index was calculated with the following formula: Contraction index=(TD0−TD4)/TD0
TD4 and TD0 represent original tissue size (excluding the migrated area) on Day 4 and Day 0 respectively.
The Inventors isolated fascia from back-skin of En1^Cre; R26^mTmG double-transgenic mice, separately incubated whole fascia explants with 26 small molecules, and measured the invasion index (Si)=(SD4−SD0)/SD0 (see Methods) as a proxy measure of sprouting and reticulation.

[5] = listed as Fluvastatin, sodium salt

SMILES	fascia matrix movements (contraction) (fascia matrix)	fascia (matrix jelly) mobilization into wounds [1, 5]	fascia (matrix jelly) mobilization into wounds ([1]; sodium salt)	phenotype as inhibitor of ECM movement (skin-fascia explants)	cell death (caspase 3) (fascia fibroblasts [2])	cell proliferation activity (Ki67) (fascia fibroblasts [2])	αSMA expression / activation into myofibroblasts (fascia fibroblasts [2])	scar size / scarring of wounds [3]	Gli1 protein expression (Gli1)	inter-cell connectivity, sprouting and reticulations within the fascia (fascia fibroblasts [4]; [5])	inter-cell connectivity, sprouting and reticulations within the fascia (fascia fibroblasts [4]; sodium salt)	fascia (matrix jelly) mobilization into wounds [1]	inter-cell connectivity, sprouting and reticulations within the fascia (fascia fibroblasts [4])
COc1cc([C@@H]2c3cc4c(cc3[C@@H](O[C@@H]3O[C@@H]5CO[C@@H](C)O[C@H]5[C@H](O)[C@H]3O)[C@H]3COC(=O)[C@H]23)OCO4)cc(OC)c1O [Etoposide]	no effect; also recorded: clear contraction of the fascial matrix in culture in absence of cell proliferation												
CC(C)n1c(/C=C/C(O)CC(O)CC(=O)O)c(-c2ccc(F)cc2)c2ccccc21 (centres unmarked) [Fluvastatin sodium salt]		completely inhibited	reduced fascia jelly movements	anti-fibrotic phenotype	increased	decreased	cells can be activated into myofibroblast	reduced scaring of wounds	weakly expressed	intact cell-cell connection and network formation	completely inhibited sprouting and reticulations		
C=C(NC(=O)C(=C)NC(=O)c1csc(C2=N[C@@H]3c4csc(n4)[C@H]4NC(=O)c5csc(n5)[C@H]([C@](C)(O)[C@@H](C)O)NC(=O)[C@H]5CSC(=N5)/C(=C/C)NC(=O)[C@H]([C@@H](C)O)NC(=O)c5csc(n5)[C@]3(CC2)NC(=O)[C@H](C)NC(=O)C(=C)NC(=O)[C@H](C)NC(=O)[C@H]([C@@H](C)CC)N[C@@H]2C=Cc3c([C@H](C)O)cc(nc3[C@H]2O)C(=O)O[C@@H]4C)n1)C(N)=O [Thiostrepton]				anti-fibrotic phenotype	increased	decreased		reduced scaring of wounds				reduced fascia jelly movements; also recorded: inhibited	completely inhibited sprouting and reticulations
